Source: PMC10610545, “Preclinical Evaluation of an Imidazole-Linked Heterocycle for Alzheimer’s Disease” (Pharmaceutics, 2023)

Key:
[1] = test system: SH-SY5Y dopaminergic neurons; assay: 6-OHDA-induced damage in SH-SY5Y cells (MTT viability, Griess nitrite); assay type: cell-based, human; settings: 35 μM 6-OHDA; for neuroprotection (cell viability, MTT): 1 h pretreatment, LSL33 2 μM, LSL34 and LSL60101 1 μM; for nitrite production: culture supernatant
Experimental: In the study of neurotoxicity associated with AD, the HT22 mouse hippocampal neuronal cell line has been recognized as an effective cell model. HT22 cells were purchased from Merck-Sigma-Aldrich (SCC12, Madrid, Spain) and cultured in DMEM-F12 (Gibco, Fisher Scientific, Madrid, Spain) supplemented with foetal bovine serum (FBS, 10%) and 1% penicillin/streptomycin under standard conditions (37 °C, 5% CO2). The human dopaminergic cell line SH-SY5Y, in turn, has been widely used as an in vitro model to study the pathogenesis of PD associated with dopaminergic degeneration. Cells, acquired from the American Type Culture Collection (ATCC, Rockville, MD, USA, Ref.CRL-2266), were grown in RPMI medium (Gibco) supplemented with glutamine (2 mM), 10% FBS, and 1% penicillin/streptomycin under standard conditions. Semiconfluent cells (90%) were seeded on 96-well plates at 3 × 10^4 per well and incubated for 24 h before treatment.
Neuronal cultures, HT-22 and SH-SY5Y, seeded on 96-well plates were treated with LSL33, LSL34, and LSL60101 for 24 h, and viability was assessed using the MTT assay. […] Then, cultures were treated for 1h with LSL33 at 2 μM and LSL34 and LSL60101 at 1 μM. This dose was chosen based on previous studies. Subsequently, HT-22 cultures were exposed to glutamate (10 mM, Merck-Sigma), while SH-SY5Y cultures received 6-hydroxydopamine (6-OHDA, 35 μM, Merck-Sigma). The cells were then incubated for a minimum of 16 h. Finally, the cellular viability and nitrite production of the cultures were assessed.
The assessment of cell viability was conducted using the 3-(4,5-dimethylthiazol-2-yl)-5-(3-carboxymethoxyphenyl)-2-(4-sulfophenyl)-2H-tetrazolium (MTT) assay, following the instructions provided by the manufacturer (Roche Diagnostic, Darmstadt, Germany). Briefly, after exposure to glutamate or 6-OHDA, the cell culture medium was replaced with 100 μL of fresh culture medium containing MTT solution (0.5 mg/mL) and incubated for 1 h. The medium was then removed, and the resulting formazan crystals were dissolved in dimethylsulfoxide (DMSO, Merck-Sigma). The absorbance of the solution was measured at 595–650 nm using a spectrophotometer. The experiments were performed at least three times, and the results were expressed as a percentage of the control.
Following the designated treatments, 100 μL of the cell culture supernatant was mixed with an equal volume of Griess reagent (consisting of 1% sulfanylamide and 0.1% naphthyl ethylene diamine in 5% phosphoric acid, sourced from Sigma-Aldrich, Madrid, Spain) at room temperature for 15 min. To determine the nitrite concentrations, a standard solution of sodium nitrite was employed. The absorbance of the mixture was measured at 492/540 nm using a microplate reader from Thermofisher (Madrid, Spain). The experiments were repeated a minimum of three times.
Figure 4 In vitro screening of I2-IR ligands: Assessment of neuroprotective and anti-inflammatory effects HT-22 cells exposed to 10mM glutamate for at least 16 h Similarly, SH-SY5Y was damaged with 35 μM 6-OHDA (35 μM). Some cultures were pretreated with the I2-IR ligands. Cell viability was evaluated using the MTT assay, and nitrite production in the cell supernatant was quantified using the Griess reaction. The reported values represent the mean ± SD obtained from triplicate determinations repeated at least three times. Statistical analysis was performed: * p ≤ 0.05, ** p ≤ 0.01, *** p ≤ 0.001 (versus glutamate- or 6-OHDA-treated cultures); ^# p ≤ 0.05, ^### p ≤ 0.001 (versus idazoxan-treated cultures); ^& p ≤ 0.1, ^&&& p ≤ 0.001 (versus 2-BFI-treated cultures).

[2] = target: imidazoline I2 receptors (I2-IR); assay: Competition binding against [3H]2-BFI, membranes from post-mortem human frontal cortex; settings: for Ki: corresponds to pKiH, read-out: Ki of the high-affinity I2 site; for [3H]-2-BFI I2 pKi (One Site): monophasic fit; for [3H]-2-BFI I2 pKi (Two Sites), high affinity (pKiH) / [3H]-2-BFI I2 pKi (Two Sites), low affinity (pKiL): two-site model; for [3H]-2-BFI I2 pKi (Two Sites), high affinity (pKiH): high-affinity site; for [3H]-2-BFI I2 pKi (Two Sites), low affinity (pKiL): low-affinity site
Excerpt: The inhibition constant (Ki) for each compound was obtained and is expressed as the corresponding pKi. The selectivity for these two receptors was expressed by the I2/α2 index, calculated as the antilogarithm of the […] between pKi values for I2-IR and pKi values for α2-AR.
Preparation of cellular membranes.
Human brain samples were obtained at autopsy in the Basque Institute of Legal Medicine, Bilbao, Spain. Samples from the prefrontal cortex (Brodmann’s area 9) were dissected at the time of autopsy and immediately stored at -70 °C until assay. The study was developed in compliance with policies of research and ethical review boards for postmortem brain studies.
To obtain cellular membranes (P2 fraction) the different samples were homogenized using an ultraturrax in 10 volumes of homogenization buffer (0.25 M sucrose, 5 mM Tris–HCl, pH 7.4).
The crude homogenate was centrifuged for 5 min at 1000 g (4 °C) and the supernatant was centrifuged again for 10 min at 40,000 g (4 °C). The resultant pellet was washed twice in 5 volumes of homogenization buffer and recentrifuged in similar conditions. Protein content was measured according to the method of Bradford using BSA as standard.
Competition Binding Assays.
The pharmacological activity of the compounds was evaluated through competition binding studies against the I2-IR selective radioligand [3H]2-BFI or the α2-adrenergic receptor selective radioligand [3H]RX821002. Specific binding was measured in 0.25 mL aliquots (50 mM Tris-HCl, pH 7.5) containing 100 µg of membranes, which were incubated in 96-well plates either with […]
Incubations were terminated by separating free ligand from bound ligand by rapid filtration […]
counted for radioactivity by liquid scintillation spectrometry using a MicroBeta TriLux counter (PerkinElmer). Specific binding was determined and plotted as a function of the compound concentration. Nonspecific binding was determined in the presence of idazoxan (10–5 M), a compound with well stablished affinity for I2-IR and α2-adrenergic receptors, in [3H]2-BFI and [3H]RX821002 assays. To obtain the inhibition constant (Ki) analyses of competition experiments were performed by nonlinear regression using the GraphPad Prism program. Ki values were normalized to pKi values. I2-IR/α2 selectivity index was calculated as the antilogarithm of the difference between pKi values for I2-IR and pKi values for α2-ARs.

[3] = PAMPA-BBB permeation assay; assay type: in vitro ADME, porcine; settings: pig, PBS/EtOH (70:30), mean ± SD, read-out: Permeability Pe
Experimental: In vitro Blood-Brain Barrier Permeation Assay
To evaluate the brain penetration of the different compounds, a parallel artificial membrane permeation assay for blood-brain barrier was used, following the method described by Di et al.1 The in vitro permeability (Pe) of fourteen commercial drugs (see Table S1) through lipid extract of porcine brain membrane together with the test compounds were determined. Commercial drugs and assayed compounds were tested using a mixture of PBS:ETOH (70:30). Assay validation was made by comparing the experimental permeability with the reported values of the commercial drugs by bibliography and lineal correlation between experimental and reported permeability of the fourteen commercial drugs using the parallel artificial membrane permeation […]
From this equation and taking into account the limits established by Di et al. for BBB permeation, we established the ranges of permeability […]
predictive penetration in the CNS used as references.
1 Di, L.; Kerns, E. H.; Fan, K.; McConnell, O. J.; and Carter, G. T. High throughput artificial membrane permeability assay for blood-brain barrier.

Cl.c1ccc2sc(-c3ncc[nH]3)cc2c1 [LSL33, 2-(Benzo[b]thiophene-2-yl)-1H-imidazole hydrochloride]
neuroprotection (cell viability, MTT) [1]: potent neuroprotective effects
nitrite production [1]: significant attenuation of the increased nitrite production
Ki [2]: 0.079 nM
[3H]-2-BFI I2 pKi (One Site) [2]: 5.95 ± 0.24
[3H]-2-BFI I2 pKi (Two Sites), high affinity (pKiH) [2]: 10.1 ± 0.57
[3H]-2-BFI I2 pKi (Two Sites), low affinity (pKiL) [2]: 5.68 ± 0.25
Papp [3]: 8.1 ± 0.4 ×10⁻⁶ cm/s

Cl.c1ccc2oc(-n3ccnc3)cc2c1 [LSL34, 1-(Benzofuran-2-yl)-1H-imidazole hydrochloride]
neuroprotection (cell viability, MTT) [1]: potent neuroprotective effects
nitrite production [1]: significant attenuation of the increased nitrite production
[3H]-2-BFI I2 pKi (One Site) [2]: 5.58 ± 0.31
[3H]-2-BFI I2 pKi (Two Sites), high affinity (pKiH) [2]: 9.23 ± 0.36
Papp [3]: 14.1 ± 0.5 ×10⁻⁶ cm/s

c1ccc2oc(-c3ncc[nH]3)cc2c1 [LSL60101, reference compound]
neuroprotection (cell viability, MTT) [1]: potent neuroprotective effects
nitrite production [1]: significant attenuation of the increased nitrite production
Selectivity I2/α2 ([2]; antilog (pKi I2-IR − pKi α2-AR)): 3090
Ki [2]: 6.7 nM
[3H]-2-BFI I2 pKi (One Site) [2]: 6.67 ± 0.09
[3H]-2-BFI I2 pKi (Two Sites), high affinity (pKiH) [2]: 8.17 ± 0.19
[3H]-2-BFI I2 pKi (Two Sites), low affinity (pKiL) [2]: 6.02 ± 0.10
Papp [3]: 13.6 ± 0.4 ×10⁻⁶ cm/s
